# Tested on: relapsed/refractory (R/R) follicular lymphoma (FL)
# Assay: DAWN study (NCT01779791): phase 2, single-arm ibrutinib monotherapy
# Type: in vivo, humans
# Details: patients with R/R FL, ibrutinib 560 mg once daily
# Description: Detailed methodology for the DAWN trial is published in Gopal A K, et al. J Clin Oncol. 2018; 36:2405-2412. […] The primary end point was overall response rate (ORR=complete response [CR]+partial response [PR]), assessed by an independent review committee using the International Working Group Revised Response Criteria for Malignant Lymphoma.
smiles,measurement,setting,value
"C=CC(=O)N1CCC[C@@H](n2nc(-c3ccc(Oc4ccccc4)cc3)c3c(N)ncnc32)C1 [ibrutinib, Ibrutinib]",duration of response (median) in responders,,19.4 months
same,overall response rate (ORR = complete response + partial response),"independent review committee, 95% CI 13.7-29.7",20.9%
